ChEMBL document CHEMBL5303304, “EUbOPEN Chemogenomics Library - IncuCyte” (2023)

What was measured:
Assay type in all cases: toxicity, cell-based
[1] = system: U2OS; assay: Incucyte cell viability with U2OS; conditions: human, 10 µM, compound concentration 10 uM
[2] = system: Fibroblast; assay: Incucyte cell viability with human fibroblast; conditions: 10 µM, compound concentration 10 uM
[3] = system: HEK-293T; assay: Incucyte cell viability with HEK293T; conditions: human, 10 µM, compound concentration 10 uM
Note: unitless GR value; below 1 slowed growth and below 0 cell loss.

## O=C(Nc1cccc(Nc2nccc(Nc3cccc(C(F)(F)F)c3)n2)c1)C1CC1 [ANILINOPYRIMIDINE1]
[1]; 0 h, replicate number 1
  Growth Rate: -0.01
[1]; 0 h, replicate number 2
  Growth Rate: 0.91
[1]; 6 h, replicate number 1
  Growth Rate: -0.16
[1]; 6 h, replicate number 2
  Growth Rate: -0.36
[1]; 12 h, replicate number 1
  Growth Rate: -0.21
[1]; 12 h, replicate number 2
  Growth Rate: -0.42
[1]; 18 h, replicate number 1
  Growth Rate: -0.21
[1]; 18 h, replicate number 2
  Growth Rate: -0.3
[1]; 24 h, replicate number 1
  Growth Rate: -0.08
[1]; 24 h, replicate number 2
  Growth Rate: -0.1
[2]; 0 h, replicate number 1
  Growth Rate: -1
[2]; 6 h, replicate number 1
  Growth Rate: -0.79
[2]; 6 h, replicate number 2
  Growth Rate: -1
[2]; 12 h, replicate number 1
  Growth Rate: -0.84
[2]; 12 h, replicate number 2
  Growth Rate: -0.73
[2]; 18 h, replicate number 1
  Growth Rate: -0.68
[2]; 24 h, replicate number 1
  Growth Rate: -0.48
[2]; 24 h, replicate number 2
  Growth Rate: -0.55
[3]; 6 h, replicate number 1
  Growth Rate: -0.91
[3]; 6 h, replicate number 2
  Growth Rate: -0.97
[3]; 12 h, replicate number 1
  Growth Rate: -0.71
[3]; 12 h, replicate number 2
  Growth Rate: -0.79
[3]; 18 h, replicate number 1
  Growth Rate: -0.46
[3]; 18 h, replicate number 2
  Growth Rate: -0.54
[3]; 24 h, replicate number 1
  Growth Rate: -0.29
[3]; 24 h, replicate number 2
  Growth Rate: -0.38

## CNC(=O)c1ccc(C)c(-n2c(C)cc(OCc3ccc(F)cc3F)c(Br)c2=O)c1 [PH-797804]
[1]; 0 h, replicate number 1
  Growth Rate: -0.97
[1]; 0 h, replicate number 2
  Growth Rate: 0.65
[1]; 6 h, replicate number 2
  Growth Rate: 0.54
[1]; 12 h, replicate number 1
  Growth Rate: 0.91
[1]; 12 h, replicate number 2
  Growth Rate: 0.75
[2]; 0 h, replicate number 1
  Growth Rate: -0.91
[2]; 6 h, replicate number 2
  Growth Rate: 0.91
[2]; 12 h, replicate number 2
  Growth Rate: 0.99
[3]; 0 h, replicate number 2
  Growth Rate: 0.72

## COc1ccc(-c2c(-c3ccccc3)oc3ncnc(O[C@H](C)CCCCC(=O)O)c23)cc1
[1]; 12 h, replicate number 1
  Growth Rate: 0.94
[2]; 0 h, replicate number 1
  Growth Rate: -1
[2]; 6 h, replicate number 1
  Growth Rate: 0.79
[2]; 6 h, replicate number 2
  Growth Rate: -0.43
[2]; 12 h, replicate number 2
  Growth Rate: 0.48
[2]; 18 h, replicate number 2
  Growth Rate: 0.98
[2]; 24 h, replicate number 1
  Growth Rate: 0.88
[3]; 0 h, replicate number 1
  Growth Rate: 0.1
[3]; 0 h, replicate number 2
  Growth Rate: 0.14

## COCCNc1nc2ccc(C#CC3(O)CCCCC3)cc2n1-c1ccnc(N)n1
[1]; 6 h, replicate number 1
  Growth Rate: 0.44
[1]; 6 h, replicate number 2
  Growth Rate: 0.8
[1]; 12 h, replicate number 1
  Growth Rate: 0.77
[1]; 12 h, replicate number 2
  Growth Rate: 0.69
[1]; 18 h, replicate number 1
  Growth Rate: 0.85
[1]; 18 h, replicate number 2
  Growth Rate: 0.73
[1]; 24 h, replicate number 1
  Growth Rate: 0.92
[1]; 24 h, replicate number 2
  Growth Rate: 0.78
[2]; 6 h, replicate number 1
  Growth Rate: -0.48
[2]; 6 h, replicate number 2
  Growth Rate: -1
[2]; 12 h, replicate number 1
  Growth Rate: -1
[2]; 12 h, replicate number 2
  Growth Rate: -0.26
[2]; 18 h, replicate number 1
  Growth Rate: 0.24
[2]; 18 h, replicate number 2
  Growth Rate: 0.28
[2]; 24 h, replicate number 1
  Growth Rate: 0.3
[2]; 24 h, replicate number 2
  Growth Rate: 0.18
[3]; 6 h, replicate number 1
  Growth Rate: 0.37
[3]; 12 h, replicate number 2
  Growth Rate: 1
[3]; 18 h, replicate number 2
  Growth Rate: 0.96
[3]; 24 h, replicate number 2
  Growth Rate: 0.84

## COC(=O)C1=C(C)NC(C)=C(C(=O)OC(C)C)C1c1cccc2nonc12 (stereo not drawn) [ISRADIPINE]
[1]; 0 h, replicate number 1
  Growth Rate: 0.46
[1]; 0 h, replicate number 2
  Growth Rate: 0.25
[1]; 6 h, replicate number 2
  Growth Rate: 0.83
[1]; 12 h, replicate number 1
  Growth Rate: 1
[1]; 12 h, replicate number 2
  Growth Rate: 0.87
[1]; 18 h, replicate number 2
  Growth Rate: 0.89
[1]; 24 h, replicate number 2
  Growth Rate: 0.9
[2]; 6 h, replicate number 1
  Growth Rate: -0.03
[2]; 12 h, replicate number 1
  Growth Rate: -1
[2]; 18 h, replicate number 1
  Growth Rate: -0.41
[2]; 24 h, replicate number 1
  Growth Rate: 0.29
[3]; 0 h, replicate number 1
  Growth Rate: 0.8
[3]; 0 h, replicate number 2
  Growth Rate: 0.32

## FC(F)(F)c1ccccc1-c1cc(C(F)(F)F)c2[nH]c(C3=NOC4(CCCCC4)C3)nc2c1
[1]; 0 h, replicate number 2
  Growth Rate: -0.12
[1]; 12 h, replicate number 2
  Growth Rate: 0.98
[1]; 24 h, replicate number 2
  Growth Rate: 0.94
[2]; 6 h, replicate number 2
  Growth Rate: -0.79
[2]; 12 h, replicate number 2
  Growth Rate: -0.41
[2]; 18 h, replicate number 2
  Growth Rate: -0.08
[2]; 24 h, replicate number 2
  Growth Rate: -0.03
[3]; 6 h, replicate number 1
  Growth Rate: 0.12
[3]; 6 h, replicate number 2
  Growth Rate: -0.15
[3]; 12 h, replicate number 1
  Growth Rate: -0.3
[3]; 12 h, replicate number 2
  Growth Rate: -0.05
[3]; 18 h, replicate number 1
  Growth Rate: -0.22
[3]; 18 h, replicate number 2
  Growth Rate: -0.02
[3]; 24 h, replicate number 1
  Growth Rate: -0.23
[3]; 24 h, replicate number 2
  Growth Rate: 0

## Cn1cc(-c2ccc3occ(-c4cccc(-c5ccncc5)c4)c3n2)cn1
[1]; 0 h, replicate number 2
  Growth Rate: 0.89
[1]; 6 h, replicate number 1
  Growth Rate: -0.24
[1]; 6 h, replicate number 2
  Growth Rate: 0.44
[1]; 12 h, replicate number 1
  Growth Rate: 0.6
[1]; 12 h, replicate number 2
  Growth Rate: 0.51
[1]; 18 h, replicate number 1
  Growth Rate: 0.65
[1]; 18 h, replicate number 2
  Growth Rate: 0.73
[1]; 24 h, replicate number 1
  Growth Rate: 0.7
[1]; 24 h, replicate number 2
  Growth Rate: 0.87
[2]; 0 h, replicate number 1
  Growth Rate: 0.22
[2]; 6 h, replicate number 2
  Growth Rate: -0.75
[2]; 12 h, replicate number 1
  Growth Rate: -0.8
[2]; 12 h, replicate number 2
  Growth Rate: 0.4
[2]; 18 h, replicate number 1
  Growth Rate: 0.07
[2]; 18 h, replicate number 2
  Growth Rate: 0.54
[2]; 24 h, replicate number 1
  Growth Rate: 0.25
[2]; 24 h, replicate number 2
  Growth Rate: 0.73
[3]; 6 h, replicate number 1
  Growth Rate: -0.45
[3]; 6 h, replicate number 2
  Growth Rate: -0.34
[3]; 12 h, replicate number 1
  Growth Rate: -0.46
[3]; 12 h, replicate number 2
  Growth Rate: 0
[3]; 18 h, replicate number 1
  Growth Rate: -0.15
[3]; 18 h, replicate number 2
  Growth Rate: 0.33
[3]; 24 h, replicate number 1
  Growth Rate: 0.35
[3]; 24 h, replicate number 2
  Growth Rate: 0.52

## CC1CCN(c2ccnc(NCc3cn(C)cn3)n2)CC1 [TP-040]
[1]; 0 h, replicate number 1
  Growth Rate: -1
[1]; 0 h, replicate number 2
  Growth Rate: 0.69
[1]; 6 h, replicate number 2
  Growth Rate: 0.76
[1]; 12 h, replicate number 2
  Growth Rate: 0.8
[1]; 18 h, replicate number 2
  Growth Rate: 0.86
[1]; 24 h, replicate number 2
  Growth Rate: 0.84
[2]; 0 h, replicate number 2
  Growth Rate: -0.66
[2]; 6 h, replicate number 1
  Growth Rate: 0.15
[2]; 6 h, replicate number 2
  Growth Rate: 0.66
[2]; 12 h, replicate number 1
  Growth Rate: 0.71
[2]; 12 h, replicate number 2
  Growth Rate: 0.76
[2]; 18 h, replicate number 1
  Growth Rate: 0.71
[2]; 24 h, replicate number 1
  Growth Rate: 0.65
[3]; 6 h, replicate number 2
  Growth Rate: 0.85

## C=C1/C(=C\C=C2/CCC[C@]3(C)[C@@H]([C@H](C)CCCC(C)(C)O)CC[C@@H]23)C[C@@H](O)C[C@@H]1O [CALCITRIOL]
[1]; 0 h, replicate number 1
  Growth Rate: -0.07
[1]; 0 h, replicate number 2
  Growth Rate: 0.74
[1]; 6 h, replicate number 1
  Growth Rate: 0.27
[1]; 6 h, replicate number 2
  Growth Rate: 0.45
[1]; 12 h, replicate number 1
  Growth Rate: -0.16
[1]; 12 h, replicate number 2
  Growth Rate: 0.63
[1]; 18 h, replicate number 1
  Growth Rate: 0.83
[1]; 18 h, replicate number 2
  Growth Rate: 0.67
[1]; 24 h, replicate number 1
  Growth Rate: 0.91
[1]; 24 h, replicate number 2
  Growth Rate: 0.67
[2]; 6 h, replicate number 1
  Growth Rate: 0.62
[2]; 6 h, replicate number 2
  Growth Rate: 0.1
[2]; 12 h, replicate number 1
  Growth Rate: 0.49
[2]; 12 h, replicate number 2
  Growth Rate: 0.64
[2]; 18 h, replicate number 1
  Growth Rate: 0.64
[2]; 24 h, replicate number 1
  Growth Rate: 0.96
[3]; 0 h, replicate number 2
  Growth Rate: -0.91
[3]; 6 h, replicate number 1
  Growth Rate: 0.8
[3]; 6 h, replicate number 2
  Growth Rate: 0.4
[3]; 12 h, replicate number 1
  Growth Rate: 0.61
[3]; 12 h, replicate number 2
  Growth Rate: 0.7
[3]; 18 h, replicate number 1
  Growth Rate: 0.44
[3]; 18 h, replicate number 2
  Growth Rate: 0.67
[3]; 24 h, replicate number 1
  Growth Rate: 0.53
[3]; 24 h, replicate number 2
  Growth Rate: 0.55

## COc1cc(N2CCN(C)CC2)ccc1Nc1nccc(-c2cn(C)c3cnccc23)n1
[1]; 0 h, replicate number 2
  Growth Rate: -0.71
[1]; 24 h, replicate number 1
  Growth Rate: 0.75
[2]; 0 h, replicate number 2
  Growth Rate: 0.04
[2]; 6 h, replicate number 1
  Growth Rate: -1
[3]; 0 h, replicate number 1
  Growth Rate: -0.65
[3]; 0 h, replicate number 2
  Growth Rate: -0.69
[3]; 24 h, replicate number 2
  Growth Rate: 0.8

## S=c1[nH]nc(-c2cccs2)n1-c1ccccc1
[1]; 0 h, replicate number 1
  Growth Rate: 0.53
[1]; 6 h, replicate number 2
  Growth Rate: 0.93
[1]; 12 h, replicate number 2
  Growth Rate: 0.8
[1]; 18 h, replicate number 1
  Growth Rate: 0.95
[1]; 18 h, replicate number 2
  Growth Rate: 0.87
[2]; 0 h, replicate number 1
  Growth Rate: 0.04
[2]; 0 h, replicate number 2
  Growth Rate: -0.79
[2]; 6 h, replicate number 2
  Growth Rate: -0.3
[2]; 12 h, replicate number 1
  Growth Rate: -0.72
[2]; 18 h, replicate number 1
  Growth Rate: -0.25
[2]; 24 h, replicate number 1
  Growth Rate: 0.01
[3]; 0 h, replicate number 2
  Growth Rate: 0.81
[3]; 6 h, replicate number 1
  Growth Rate: 0.53
[3]; 6 h, replicate number 2
  Growth Rate: 0.97
[3]; 12 h, replicate number 1
  Growth Rate: 0.58
[3]; 12 h, replicate number 2
  Growth Rate: 0.73
[3]; 18 h, replicate number 1
  Growth Rate: 0.91
[3]; 18 h, replicate number 2
  Growth Rate: 0.87
[3]; 24 h, replicate number 1
  Growth Rate: 0.9
[3]; 24 h, replicate number 2
  Growth Rate: 0.83
